Data published in US7105564B1, “Pharmaceutical composition comprising a dual antagonist against PGD2/TXA2 receptors having a [2.2.1] or [3.1.1] bicyclic skeleton” (Shionogi & Co., Ltd., priority 1999, dated 2006).
pIC50: −log10 of the molar value. Marks after values point to notes of the source that are not given here.

Experiments:
PGD2 receptor [1] = target: T1, PGD2 receptor (Homo sapiens, UniProt Q13258); assay: Antagonistic activity against PGD2 receptor using human platelet (inhibition of cAMP increase caused by PGD2); assay type: cell-based; settings: Comparative Experiment 1; read-out: Experiment 3 Antaginistic activity against PGD2 receptor IC50
T1 sequence (Q13258 1-359): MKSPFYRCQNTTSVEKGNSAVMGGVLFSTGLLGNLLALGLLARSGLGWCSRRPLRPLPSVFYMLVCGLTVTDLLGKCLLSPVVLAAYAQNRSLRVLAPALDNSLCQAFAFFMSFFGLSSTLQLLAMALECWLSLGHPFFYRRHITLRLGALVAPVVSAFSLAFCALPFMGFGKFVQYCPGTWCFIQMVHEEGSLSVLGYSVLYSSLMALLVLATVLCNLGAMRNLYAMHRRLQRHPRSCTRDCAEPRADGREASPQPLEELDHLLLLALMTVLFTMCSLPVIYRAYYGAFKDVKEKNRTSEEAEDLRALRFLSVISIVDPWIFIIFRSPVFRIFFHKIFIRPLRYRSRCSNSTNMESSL
Protocol: Experiment 3 Evaluation of Antagonistic Activity Against PGD2 Receptor Using Human Platelet
Peripheral blood was collected from a healthy volunteer using a syringe in which 1/9 volume of a citric acid/dextrose solution was previously added. The sample was subjected to centrifugation at 180 g for 10 min to obtain the supernatant (PRP: platelet rich plasma). The resultant PRP was washed 3 times with a washing buffer and the number of platelets was counted with a micro cell counter. A suspension adjusted to contain the platelets at a final concentration of 5×10^8/ml was warmed at 37° C., then subjected to the pre-treatment with 3-isobutyl-1-methylxanthine (0.5 mM) for 5 min. To the suspension was added a test compound diluted at various concentration, and 10 minutes later, 0.1 μM PGD2 was added to induce the reaction 2 minutes later, hydrochloric acid was added to terminate the reaction. The platelet was destroyed with an ultrasonic homogenizer. After centrifugation, the cAMP in the supernatant was determined by radioimmunoassay. PGD2 receptor antagonism of a drug was evaluated as follows: the inhibition rate regarding cAMP increased by the addition of PGD2 was determined at each concentration, and the concentration of the drug required for 50% inhibition (IC50) was calculated.

Male Hartley guinea pigs [2] = assay: Antigen-induced bronchial hyperresponsiveness; assay type: in vivo, guinea pig; settings: for Log PD200: acetylcholine dose for 200% increase in bronchoconstriction; for induction of bronchial hyperresponsiveness (in words): summary of Tables 34-36
Protocol: Antigen-induced bronchial hyperresponsiveness
Male Hartley guinea pigs were actively sensitized to ovalbumin (OVA) by inhalation of aerosolized solution of 1% ovalbumin twice at a week interval. One week after the second sensitization, the animals were treated with antihistamine, diphenhydramine (10 mg/kg, i.p.), and then challenged with 1% OVA aerosol for 5 min. Twenty four hours later, acetylcholine at doses at 3.13, 6. 25, 12.5, 25, 50 and 100 micro g/kg was sequentially injected into the animals which were anesthetized with pentobarbital (30 mg/kg, i.p.). The bronchoconstriction induced by each dose of acetylcholine was monitored by the modified method of Konzett-Rössler technique, and made a dose-response curve of acetylcholine. Using the dose-response curve, the dose required for 200% increase in bronchoconstriction from baseline (PD200) was calculated in each animal and used as an indication of bronchial responsiveness. Compounds were orally administered 1 hour before antigen challenge. **: P<0.01 vs Vehicle(Dunnett's test), ##: P<0.01 vs Vehicle(Student's t test).

Male Hartley guinea pigs [3] = assay: Antigen-induced increase in the eosinophil number in bronchoalveolar lavage fluid; assay type: in vivo, guinea pig; settings: for Eosinophils, inhibition % / Total cells, inhibition % / Cell number, Eosinophils / Cell number, Total cells: 10 mg/kg orally, 1 hour before and 24 and 48 hours after challenge; for Cell number, Eosinophils / Cell number, Total cells: BAL 72 hours; for eosinophil infiltration (in words): summary of Tables 37-39
Protocol: Antigen-induced increase in the eosinophil number in bronchoalveolar lavage fluid.
As described above, the animals were sensitized and challenged with antigen, seventy-two hours later, bronchoalveolar lavage was performed with 10 mL of saline. After the number of total cells in the recovered fluid was counted, smear samples were made. The samples were stained with May Grünward-Giemsa Stain, and differential cell count was performed by counting 500 cells/each sample. The eosinophil number was calculated by the ratio of the number of eosinophils, macrophages, neutrophils and lymphocytes. Compounds were orally administered three times 1 hour before and 24 and 48 hours after the challenge. The results are shown as follows. *: P<0.05, * *: P<0.01 vs Vehicle(Dunnett's test), : P<0. 01 vs Vehicle(Student's t test). ( ): inhibition %.

Male Hartley guinea pigs [4] = assay: Antigen-induced bronchoconstriction; assay type: in vivo, guinea pig; settings: for antigen-induced bronchoconstriction (in words): summary of Tables 40-42
Protocol: Antigen-induced bronchoconstriction
Male Hartley guinea pigs were passively sensitized by intravenous injection of anti-OVA serum (antibody titer: 1: 3200), and 48 hours later, the animals were challenged by intravenous injection of OVA (70 micro g/kg). The bronchoconstriction induced by antigen was continuously monitored by means of modified method of Konzett-Rössler technique. The peak value of bronchoconstriction in each animal was used for evaluation of compounds. Compound (I-1b) and compound (B-2) were orally administered 1 hour before, compound (A) 2 hours before antigen challenge. The results are shown as follows. *: P<0.05 vs Vehicle, ##: P<0.01 vs Vehicle. ( ): inhibition %.

PGD2 receptor [5] = target: T1, PGD2 receptor; assay: Binding activity to PGD2 receptor in human platelet membrane fraction ([3H]PGD2); set-up: The platelets were homogenized using a homogenizer (Ultra-Turrax) followed by centrifugation 3 times at 20,000 rpm; from tissue; host or cells: human platelet membrane fraction from blood of healthy volunteers; settings: Comparative Experiment 1; read-out: Experiment 1 Antaginistic activity against PGD2 receptor IC50
Protocol: Experiment 1 Binding activity to PGD2 Receptor
(1) Preparation of Human Platelet Membrane Fraction
Blood was collected using a plastic syringe containing 3.8% sodium citrate from the vein of healthy volunteers (adult male and female), then put into a plastic test tube and mixed by slow-reversion. The sample was then centrifuged at 1800 rpm, for 10 min at room temperature, and the supernatant containing PRP (platelet-rich plasma) was collected. The PRP was recentrifuged at 2300 rpm, for 22 min at room temperature to obtain platelets. The platelets were homogenized using a homogenizer (Ultra-Turrax) followed by centrifugation 3 times at 20,000 rpm, 10 min at 4° C.. to obtain a platelet membrane fraction. After protein determination, the membrane fraction was adjusted to 2 mg/ml and preserved in a refrigerator at −80° C.. until using for the binding test.
(2) Binding to PGD2 Receptor
To a binding-reaction solution (50 mM Tris/HCl, pH 7.4, 5 mM MgCl2) (0.2 ml) were added the human platelet membrane fraction (0.1 mg) and 5 nM [^3H]PGD2 (115 Ci/mmol), and the mixture was reacted at 4° C. for 90 min. After the reaction, the mixture was filtered through a glass fiber filter paper and washed several times with cooled physiological saline, then the radioactivity retained on the filter paper was measured. The specific-binding ratio was calculated by subtracting the non-specific binding ratio which is the radioactivity similarly measured in the presence of 10 μM PGD2 from the total binding.

[6] = 1 mg/kg orally 1 hour before antigen challenge
[7] = 10 mg/kg orally 1 hour before antigen challenge
[8] = 3 mg/kg orally 2 hours before antigen challenge
[9] = 10 mg/kg orally 2 hours before antigen challenge
[10] = 30 mg/kg orally 1 hour before antigen challenge

Compound | pIC50 (PGD2 receptor [1]) | Log PD200 (Male Hartley guinea pigs [2]; [6]) | Log PD200 (Male Hartley guinea pigs [2]; [7]) | induction of bronchial hyperresponsiveness (in words) (Male Hartley guinea pigs [2]) | Eosinophils, inhibition % (Male Hartley guinea pigs [3]) | Total cells, inhibition % (Male Hartley guinea pigs [3]) | Cell number, Eosinophils (Male Hartley guinea pigs [3]) | Cell number, Total cells (Male Hartley guinea pigs [3]) | eosinophil infiltration (in words) (Male Hartley guinea pigs [3]) | Peak bronchoconstriction (Male Hartley guinea pigs [4]; [8]) | Peak bronchoconstriction, inhibition % (Male Hartley guinea pigs [4]; [8]) | Peak bronchoconstriction (Male Hartley guinea pigs [4]; [9]) | Peak bronchoconstriction, inhibition % (Male Hartley guinea pigs [4]; [9]) | antigen-induced bronchoconstriction (in words) (Male Hartley guinea pigs [4]) | pIC50 (PGD2 receptor [5]) | Peak bronchoconstriction (Male Hartley guinea pigs [4]; [6]) | Peak bronchoconstriction, inhibition % (Male Hartley guinea pigs [4]; [6]) | Peak bronchoconstriction (Male Hartley guinea pigs [4]; [10]) | Peak bronchoconstriction, inhibition % (Male Hartley guinea pigs [4]; [10])
O=C(O)CCC/C=C\C[C@H]1[C@@H]2CC[C@@H](C2)[C@@H]1NS(=O)(=O)c1ccccc1 [A] | < 5.00 | 1.29 ± 0.04 | 1.61 ± 0.09** | suppressed | −18% | −18% | 4.90 ± 0.73 ×10^6 cells/animal | 13.78 ± 1.75 ×10^6 cells/animal | did not show any inhibitory actions | 55.3 ± 6.7 cm H2O | 7% | 18.8 ± 3.3 cm H2O | 68% | dramatically suppressed | < 5.00 | – | – | – | –
CC1(C)[C@H]2C[C@H](C/C=C\CCCC(=O)O)[C@@H](NC(=O)c3csc4ccc(O)cc34)[C@@H]1C2 [Compound B-2] | – | – | 1.17 ± 0.05 | did not inhibit | 43% | 45% | 4.49 ± 0.63 ×10^6 cells/animal | 13.01 ± 1.58 ×10^6 cells/animal | significantly suppressed | – | – | – | – | did not suppress | – | 36.5 ± 18.2 cm H2O | −20% | 51.8 ± 16.3 cm H2O | −71%
